One may read the Ki as a measure of affinity in units of concentration, obtained from inhibition or displacement.

One experiment addresses Mcl-1 protein (UniProtKB Q07820) (Homo sapiens (Human), UniProt Q07820). As to the kind of experiment: Inhibition of Mcl-1 by the fluorescence polarisation assay (Example A, Method A). The experiment is classed as binding. Conditions: fluorescence polarization assay. In short, it runs like this: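 Protein (5 nM) and fluorescein-tagged peptide tracer (1 nM) incubated with 11-point compound series for 2 h at room temperature in HEPES/NaCl/Tween 20 buffer, pH 7.4, 5% DMSO. Displacement read as decrease in polarisation; IC50 fitted by 4-parameter logistic, converted to Ki (cKi or eKi).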
Background: In fluorescence polarisation assays a small probe gives low polarisation when free and higher when bound to something large.

Experiment [1] concerns H929 multiple myeloma tumor line. As to the kind of experiment: In vitro cytotoxicity, MTT assay (Example B, Method A). The experiment is classed as cell-based. Conditions: H929 cells, 48 hours exposure, read-out: C50. As to the method: The cytotoxicity studies were carried out on the H929 multiple myeloma tumor line.
The cells are distributed onto microplates and exposed to the test compounds for 48 hours. The cell viability is then quantified by a colorimetric assay, the Microculture Tetrazolium Assay (Carmichael et al, Cancer Res. 1987, 47, 939-942).
The results are expressed in C50 which means concentration corresponding to […] of effect/inhibition.
Background: Tetrazolium dyes change colour on reduction, which living cells bring about.

The structures appear in SMILES notation. Where two headings read alike, the source gives them in different places.

Chain of Mcl-1 protein (Q07820 whole entry): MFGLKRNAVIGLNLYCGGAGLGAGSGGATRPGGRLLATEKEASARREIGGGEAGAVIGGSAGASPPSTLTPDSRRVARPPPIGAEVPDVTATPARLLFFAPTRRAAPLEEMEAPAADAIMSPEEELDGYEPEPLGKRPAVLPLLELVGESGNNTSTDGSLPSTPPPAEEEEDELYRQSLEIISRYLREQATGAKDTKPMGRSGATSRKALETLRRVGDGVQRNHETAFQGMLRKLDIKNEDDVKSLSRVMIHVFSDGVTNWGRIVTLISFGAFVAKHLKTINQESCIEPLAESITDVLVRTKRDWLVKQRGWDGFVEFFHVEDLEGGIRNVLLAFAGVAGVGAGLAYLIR

For the compound `O=C(O)[C@]1(Nc2cccc(Cl)c2)CC[C@@]2(CC1)c1ccccc1CC2CCCOc1ccnc2[nH]ccc12` (some centres unmarked) [Example 445, (1r,4r)-4-(3-chloroanilino)-2′-{3-[(1H-pyrrolo[2,3-b]pyridin-4-yl)oxy]propyl}-2′,3′-dihydrospiro[cyclohexane-1,1′-indene]-4-carboxylic acid], the Ki on Mcl-1 protein was determined as 0.0753 µM. For the same compound, the IC50 in experiment [1] (Homo sapiens, NCI-H929, 48 h) amounted to 5.35 µM.

As to `Cc1cnccc1OCCC[C@@H]1Cc2ccccc2[C@]12CC[C@@](Nc1cccc(Cl)c1)(C(=O)O)CC2` [Example 448, (1r,2′R,4R)-4-(3-chloroanilino)-2′-{3-[(3-methylpyridin-4-yl)oxy]propyl}-2′,3′-dihydrospiro[cyclohexane-1,1′-indene]-4-carboxylic acid], on Mcl-1 protein, the inhibition constant Ki is 0.0654 µM. Also, the IC50 in experiment [1] (Homo sapiens, NCI-H929, 48 h) was found to be 10.5 µM.

Turning to `Cc1cnccc1OCCC[C@H]1Cc2ccccc2[C@]12CC[C@@](Nc1cccc(Cl)c1)(C(=O)O)CC2` [Example 449, (1r,2′S,4S)-4-(3-chloroanilino)-2′-{3-[(3-methylpyridin-4-yl)oxy]propyl}-2′,3′-dihydrospiro[cyclohexane-1,1′-indene]-4-carboxylic acid], the Ki at Mcl-1 protein was found to be 0.08 µM. Further, the IC50 in experiment [1] (Homo sapiens, NCI-H929, 48 h) was 9.27 µM.

As for `O=C(O)[C@]1(Nc2cccc(Cl)c2)CC[C@@]2(CC1)c1ccccc1CC2CCCOc1ccnc2c1CCCC2` (some centres unmarked) [Example 451, (1r,4r)-4-(3-chloroanilino)-2′-{3-[(5,6,7,8-tetrahydroquinolin-4-yl)oxy]propyl}-2′,3′-dihydrospiro[cyclohexane-1,1′-indene]-4-carboxylic acid], the inhibitory constant (Ki) at Mcl-1 protein was determined as 0.0497 µM. Besides, the IC50 in experiment [1] (Homo sapiens, NCI-H929, 48 h) was 3.49 µM.

On to `O=C(O)[C@]1(Nc2cccc(Cl)c2)CC[C@@]2(CC1)c1ccccc1CC2CCCOc1ccnc2c1CCC2` (some centres unmarked) [Example 452, (1r,4r)-4-(3-chloroanilino)-2′-{3-[(6,7-dihydro-5H-cyclopenta[b]pyridin-4-yl)oxy]propyl}-2′,3′-dihydrospiro[cyclohexane-1,1′-indene]-4-carboxylic acid], for which the Ki on Mcl-1 protein came to 0.03 µM. Besides, the IC50 in experiment [1] (Homo sapiens, NCI-H929, 48 h) was 2.44 µM.

Take `O=C(O)[C@]1(Nc2cccc(Cl)c2)CC[C@@]2(CC1)c1ccccc1CC2CCCOc1ccncc1C(F)(F)F` (some centres unmarked) [Example 463, (1r,4r)-4-(3-chloroanilino)-2′-(3-{[3-(trifluoromethyl)pyridin-4-yl]oxy}propyl)-2′,3′-dihydrospiro[cyclohexane-1,1′-indene]-4-carboxylic acid]: the inhibition constant Ki on Mcl-1 protein turned out to be 0.0592 µM. Also, the IC50 in experiment [1] (Homo sapiens, NCI-H929, 48 h) amounted to 8.23 µM.

In the case of `O=C(O)[C@]1(Nc2cccc(Cl)c2)CC[C@@]2(CC1)c1ccccc1CC2CCCOc1ccncc1C1CC1` (some centres unmarked) [Example 464, (1r,4r)-4-(3-chloroanilino)-2′-{3-[(3-cyclopropylpyridin-4-yl)oxy]propyl}-2′,3′-dihydrospiro[cyclohexane-1,1′-indene]-4-carboxylic acid], the inhibition constant Ki on Mcl-1 protein is 0.0491 µM. For the same compound, the IC50 in experiment [1] (Homo sapiens, NCI-H929, 48 h) was 14.8 µM.

With `C[C@@H]1CCc2ncnc(OCCCC3Cc4ccccc4[C@]34CC[C@@](Nc3cccc(Cl)c3)(C(=O)O)CC4)c21` (stereo partly drawn) [Example 472, (1r,4R)-4-(3-chloroanilino)-2′-(3-{[(5R)-5-methyl-6,7-dihydro-5H-cyclopenta[d]pyrimidin-4-yl]oxy}propyl)-2′,3′-dihydrospiro[cyclohexane-1,1′-indene]-4-carboxylic acid], the inhibitory constant (Ki) at Mcl-1 protein amounted to 0.033 µM. The IC50 in experiment [1] (Homo sapiens, NCI-H929, 48 h) was found to be 5.04 µM.

Turning to `Cc1cc2c(OCCC[C@@H]3Cc4ccccc4[C@]34CC[C@@](Nc3cccc(Cl)c3)(C(=O)O)CC4)cccc2[nH]1` [Example 481, (1r,2′R,4R)-4-(3-chloroanilino)-2′-{3-[(2-methyl-1H-indol-4-yl)oxy]propyl}-2′,3′-dihydrospiro[cyclohexane-1,1′-indene]-4-carboxylic acid], on Mcl-1 protein, the Ki stood at 0.0721 µM. Moreover, the IC50 in experiment [1] (Homo sapiens, NCI-H929, 48 h) turned out to be 5.08 µM.

As to `Cc1cc2c(OCCC[C@H]3Cc4ccccc4[C@]34CC[C@@](Nc3cccc(Cl)c3)(C(=O)O)CC4)cccc2[nH]1` [Example 482, (1r,2′S,4S)-4-(3-chloroanilino)-2′-{3-[(2-methyl-1H-indol-4-yl)oxy]propyl}-2′,3′-dihydrospiro[cyclohexane-1,1′-indene]-4-carboxylic acid], the Ki at Mcl-1 protein came to 0.317 µM. Further, the IC50 in experiment [1] (Homo sapiens, NCI-H929, 48 h) came to 12.4 µM.

Turning to `Cc1c[nH]c2cccc(OCCC[C@@H]3Cc4ccccc4[C@]34CC[C@@](Nc3cccc(Cl)c3)(C(=O)O)CC4)c12` [Example 483, (1r,2′R,4R)-4-(3-chloroanilino)-2′-{3-[(3-methyl-1H-indol-4-yl)oxy]propyl}-2′,3′-dihydrospiro[cyclohexane-1,1′-indene]-4-carboxylic acid], the inhibition constant (Ki) at Mcl-1 protein is 0.174 µM. In addition, in experiment [1] (Homo sapiens, NCI-H929, 48 h), the IC50 was 4.17 µM.

Turning to `Cc1c[nH]c2cccc(OCCC[C@H]3Cc4ccccc4[C@]34CC[C@@](Nc3cccc(Cl)c3)(C(=O)O)CC4)c12` [Example 484, (1r,2′S,4S)-4-(3-chloroanilino)-2′-{3-[(3-methyl-1H-indol-4-yl)oxy]propyl}-2′,3′-dihydrospiro[cyclohexane-1,1′-indene]-4-carboxylic acid], the Ki on Mcl-1 protein is 0.759 µM. The IC50 in experiment [1] (Homo sapiens, NCI-H929, 48 h) turned out to be 9.64 µM.

For `CC(C)C(COc1ccnc2ccsc12)CC1Cc2ccccc2C12CCC(Nc1cccc(Cl)c1)(C(=O)O)CC2` (centres unmarked) [Example 525, (1r,4r)-4-(3-chloroanilino)-2′-(3-methyl-2-{[(thieno[3,2-b]pyridin-7-yl)oxy]methyl}butyl)-2′,3′-dihydrospiro[cyclohexane-1,1′-indene]-4-carboxylic acid], the Ki on Mcl-1 protein is 0.293 µM. Moreover, the IC50 in experiment [1] was determined as 2.49 µM.

On to `CC[C@H](COc1ccnc2ccsc12)C[C@@H]1Cc2ccccc2[C@]12CC[C@@](Nc1cccc(Cl)c1)(C(=O)O)CC2` [Example 536, (1r,2′R,4R)-4-(3-chloroanilino)-2′-[(2S)-2-{[(thieno[3,2-b]pyridin-7-yl)oxy]methyl}butyl]-2′,3′-dihydrospiro[cyclohexane-1,1′-indene]-4-carboxylic acid], for which the inhibition constant Ki on Mcl-1 protein is 2.1 µM. Further, the IC50 in experiment [1] (Homo sapiens, NCI-H929, 48 h) is 17.2 µM.

Consider `CC[C@H](COc1ccnc2ccsc12)C[C@H]1Cc2ccccc2[C@]12CC[C@@](Nc1cccc(Cl)c1)(C(=O)O)CC2` [Example 537, (1r,2′S,4S)-4-(3-chloroanilino)-2′-[(2S)-2-{[(thieno[3,2-b]pyridin-7-yl)oxy]methyl}butyl]-2′,3′-dihydrospiro[cyclohexane-1,1′-indene]-4-carboxylic acid], for which the inhibition constant Ki on Mcl-1 protein was 0.575 µM. Further, in experiment [1] (Homo sapiens, NCI-H929, 48 h), the IC50 came out at 16 µM.

For the compound `O=C(O)[C@]1(Nc2cccc(Cl)c2)CC[C@@]2(CC1)c1ccccc1C[C@@H]2C[C@@H](COc1ccnc2ccsc12)c1ccccc1` [Example 545, (1r,2′S,4S)-4-(3-chloroanilino)-2′-{(2R)-2-phenyl-3-[(thieno[3,2-b]pyridin-7-yl)oxy]propyl}-2′,3′-dihydrospiro[cyclohexane-1,1′-indene]-4-carboxylic acid], the inhibitory constant (Ki) on Mcl-1 protein turned out to be 3.49 µM. Also, the IC50 in experiment [1] (Homo sapiens, NCI-H929, 48 h) came out at 8.92 µM.

As to `O=C(O)[C@]1(Nc2cccc(Cl)c2)CC[C@@]2(CC1)c1ccccc1C[C@H]2C[C@H](COc1ccnc2ccsc12)c1ccccc1` [Example 546, (1r,2′R,4R)-4-(3-chloroanilino)-2′-{(2S)-2-phenyl-3-[(thieno[3,2-b]pyridin-7-yl)oxy]propyl}-2′,3′-dihydrospiro[cyclohexane-1,1′-indene]-4-carboxylic acid], the Ki at Mcl-1 protein was determined as 1.64 µM. In addition, the IC50 in experiment [1] (Homo sapiens, NCI-H929, 48 h) came to 30 µM.

`O=C(O)[C@]1(Nc2cccc(Cl)c2)CC[C@@]2(CC1)c1ccccc1C[C@@H]2C[C@@H](COc1cccnc1)c1ccccc1` [Example 548, (1r,2′S,4S)-4-(3-chloroanilino)-2′-{(2R)-2-phenyl-3-[(pyridin-3-yl)oxy]propyl}-2′,3′-dihydrospiro[cyclohexane-1,1′-indene]-4-carboxylic acid]: at Mcl-1 protein, the inhibition constant Ki came to 0.995 µM. Moreover, in experiment [1] (Homo sapiens, NCI-H929, 48 h), the IC50 was 30 µM.

Take `O=C(O)[C@]1(Nc2cccc(Cl)c2)CC[C@@]2(CC1)c1ccccc1C[C@H]2C[C@@H](COc1cccnc1)c1ccccc1` [Example 549, (1r,2′R,4R)-4-(3-chloroanilino)-2′-{(2R)-2-phenyl-3-[(pyridin-3-yl)oxy]propyl}-2′,3′-dihydrospiro[cyclohexane-1,1′-indene]-4-carboxylic acid]: the inhibition constant Ki at Mcl-1 protein was determined as 9.48 µM. The IC50 in experiment [1] (Homo sapiens, NCI-H929, 48 h) stood at 17.9 µM.

Consider `O=C(O)[C@]1(Nc2cccc(Cl)c2)CC[C@@]2(CC1)c1ccccc1C[C@H]2C[C@H](COc1cccnc1)c1ccccc1` [Example 550, (1r,2′R,4R)-4-(3-chloroanilino)-2′-{(2S)-2-phenyl-3-[(pyridin-3-yl)oxy]propyl}-2′,3′-dihydrospiro[cyclohexane-1,1′-indene]-4-carboxylic acid], for which, at Mcl-1 protein, the Ki amounted to 5.28 µM. Also, the IC50 in experiment [1] (Homo sapiens, NCI-H929, 48 h) is 30 µM.

On to `O=C(O)[C@]1(Nc2cccc(Cl)c2)CC[C@@]2(CC1)c1ccccc1C[C@@H]2C[C@H](COc1cccnc1)c1ccccc1` [Example 551, (1r,2′S,4S)-4-(3-chloroanilino)-2′-{(2S)-2-phenyl-3-[(pyridin-3-yl)oxy]propyl}-2′,3′-dihydrospiro[cyclohexane-1,1′-indene]-4-carboxylic acid], for which the inhibition constant (Ki) at Mcl-1 protein was 0.607 µM. In experiment [1] (Homo sapiens, NCI-H929, 48 h), the IC50 is 15.9 µM.

For `O=C(O)[C@]1(Nc2cccc(Cl)c2)CC[C@@]2(CC1)c1ccccc1C[C@@H]2C[C@@H](COc1ccncc1)c1ccccc1` [Example 552, (1r,2′S,4S)-4-(3-chloroanilino)-2′-{(2R)-2-phenyl-3-[(pyridin-4-yl)oxy]propyl}-2′,3′-dihydrospiro[cyclohexane-1,1′-indene]-4-carboxylic acid], the Ki at Mcl-1 protein worked out at 0.11 µM. In addition, the IC50 in experiment [1] (Homo sapiens, NCI-H929, 48 h) came to 3.38 µM.
